Where “and” joins values, the source holds several entries; their conditions need not be identical. Equal values may be shown once. Read-outs that look alike come from different tables or passages of the source.
Experiments:
[1] = test system: K562; chronic myelogenous leukemia (CML) cell lines; assay: XTT cell proliferation assay, K562; type: cell-based; conditions: for IC50: Table 1, XTT, 72 h treatment, read-out: IC50 anti-proliferative activity K562; for enhanced anti-CML activity compared to Cisplatin, K562: ratio of IC50s vs Cisplatin
Procedure: (§1) (2,3-bis-(2-methoxy-4-nitro-5-sulfophenyl)-2H-tetrazolium-5-carboxanilide) (XTT) assay was used as previously described to evaluate the cytotoxicity of the different Cisplatin derivatives. Briefly, cells (1.5 × 10^4) were plated in RPMI 1640 medium using 96-well plates for 24 h, and then treated for an additional 72 h with the different Cisplatin derivatives. A total of 50 μl of XTT solution were added to each well and incubated for 3 h at 37 °C. The optical density was measured by a multi-well plate spectrophotometer at 450 nanometers with a references’ wavelength of 630 nm. The concentrations inhibiting cell proliferation by 50 % (IC50s) of all tested derivatives were calculated. The experiment was performed in triplicate, and standard deviations were also calculated.

[2] = test system: human embryonic kidney cell line 293 T (HEK293T); assay: XTT cell proliferation assay, HEK293T; type: cell-based; conditions: for IC50: Table 2, XTT, non-cancerous cells; for selectivity: potency against A2780 compared to HEK293T: ratio of XTT IC50s
Procedure: as §1

[3] = test system: A2780cisR (Cisplatin resistant ovarian cancer cells); assay: XTT cell proliferation assay, A2780cisR; type: cell-based, human; conditions: for IC50: Table 1, XTT, 72 h treatment, read-out: IC50 anti-proliferative activity A2780cisR; for increased anti-proliferative potency compared to Cisplatin, A2780cisR: ratio of IC50s vs Cisplatin
Procedure: as §1

[4] = test system: PARP cleavage in A2780 cells; assay: Apoptosis assay: PARP cleavage by immunoblot, A2780; type: cell-based, human; conditions: 30 h treatment
Procedure: (§2) To monitor apoptosis potential of Cisplatin derivatives we followed cleavage of poly ADP ribose polymerase (PARP) protein [18]. Briefly, cells (2 × 10^5 cells/ml) were treated with Cisplatin derivatives for the indicated time. Cells were collected, washed once with cold PBS, and lysed in buffer [10 mMTris-HCl (pH 7.4), 100 mMNaCl, 1 mM EDTA, 1 mM EGTA, 1 mM NaF, 20 mM Na4P2O7, 2 mM Na3VO4, 1 % Triton x-100, 10 % Glycerol, 0.1 % sodium dodecyl sulfate (SDS), 0.5 % deoxycholate, 1 mM phenylmethylsulfonyl fluoride (PMSF), for 30 min at 4 °C. Cell lysate supernatants (40 μg protein/each) were resolved on 8 % SDS-polyacrylamide gel electrophoresis, transferred to nitrocellulose membranes, and analyzed by immune-blotting with an anti-cleaved PARP antibody (Cell signaling technology, USA ). Anti α-tubulin antibody (Santa Cruz Co., CA, USA) was used as a loading control.

[5] = test system: cleaved PARP in A2780cisR cells; assay: PathScan cleaved PARP (Asp214) sandwich ELISA, A2780cisR; type: cell-based, human; conditions: 30 h
Procedure: Cell lysates prepared from treated ovarian cancer cells (30 h) were used for quantitative measurement of cleaved PARP according to manufacturer’s instructions (Cell signaling technology, USA). In our experiments, 20 μg of total lysate proteins from each sample were utilized.

[6] = test system: A2780 cells; assay: Clonigenicity assay (soft agar), A2780; type: cell-based, human; conditions: for clonigenicity IC50s values lower than Cisplatin: ovarian cancer cell lines tested (A2780, A2780cisR); for IC50: soft agar, 2 weeks, read-out: IC50 of clonigenicity inhibition A2780
Procedure: (§3) Clonigenicity assay was performed as previously describe. Briefly, cells (1 × 10^4) in 1 ml RPMI 10 % FBS medium were diluted in 1 ml of 0.6 % agar to give a final agar concentration of 0.3 % agar. The cells-agar mixture was poured over a hardened agar base in wells of 12-well plates and allowed to solidify. Once the top layer solidified, 1 ml of medium containing different treatments was placed on top to keep the agar moist. The cells were grown at 37 °C in a 5 % CO2 humidified atmosphere until colonies were visible (2 weeks). The plates were stained for 4 h with 5 mg/ml 3-(4,5-dimethylthiazol-2-yl)-2,5-diphenyltetrazolium bromide (MTT), and the dye was extracted with 1 ml solubilization buffer (20 % SDS, 50 % N,N-dimethyl-formamide, 25 mM HCL) for 24 h. The optical density was measured at 570 nm wavelength with a reference wavelength of 630 nm.

[7] = test system: human embryonic kidney cell line 293A (HEK293A); assay: XTT cell proliferation assay, HEK293A; type: cell-based; conditions: for IC50: Table 2, XTT, non-cancerous cells; for selectivity: potency against A2780 compared to HEK293A: ratio of XTT IC50s
Procedure: as §1

[8] = test system: A2780cisR cells; assay: Clonigenicity assay (soft agar), A2780cisR; type: cell-based, human; conditions: 2 weeks, read-out: IC50 of clonigenicity inhibition A2780cisR
Procedure: as §3

[9] = test system: A2780 (Cisplatin sensitive ovarian cancer cells); assay: XTT cell proliferation assay, A2780; type: cell-based, human; conditions: for IC50: XTT
Procedure: as §1

[10] = test system: human foreskin fibroblast cells (HFF); assay: XTT cell proliferation assay, HFF; type: cell-based; conditions: for IC50: Table 2, XTT, non-cancerous cells; for ratio of IC50s against none cancerous cells (HFF) to the cancerous cell line (A2780): ratio of XTT IC50s
Procedure: as §1

[11] = test system: PARP cleavage in A2780cisR cells; assay: Apoptosis assay: PARP cleavage by immunoblot, A2780cisR; type: cell-based, human; conditions: for concentration causing significant PARP cleavage, A2780cisR: 30 h treatment
Procedure: as §2

[12] = Table 1, 72 h treatment, read-out: IC50 anti-proliferative activity A2780

| Compound | IC50 [1] [µM] | clonigenicity IC50s values lower than Cisplatin [6] | IC50 [6] [µM] | enhanced anti-CML activity compared to Cisplatin, K562 [1] [folds] | IC50 [2] [µM] | selectivity: potency against A2780 compared to HEK293T [2] | IC50 [3] [µM] | increased anti-proliferative potency compared to Cisplatin, A2780cisR [3] | concentration causing significant PARP cleavage, A2780 [4] | increase in levels of cleaved PARP compared to untreated sample ([5]; 1 microM) [fold] | increase in levels of cleaved PARP compared to untreated sample ([5]; 5 microM) [fold] | increase in levels of cleaved PARP compared to untreated sample ([5]; 25 microM) [fold] | IC50 [7] [µM] | selectivity: potency against A2780 compared to HEK293A [7] | IC50 [8] [µM] | IC50 [9, 12] [µM] | IC50 ([9]; Table 2, read-out: IC50 A2780) [µM] | IC50 [10] [µM] | ratio of IC50s against none cancerous cells (HFF) to the cancerous cell line (A2780) [10] | concentration causing significant PARP cleavage, A2780cisR [11] | further results |
| --- | --- | --- | --- | --- | --- | --- | --- | --- | --- | --- | --- | --- | --- | --- | --- | --- | --- | --- | --- | --- | --- |
| N.N.O=C([O-])C1(C(=O)[O-])CCC1.[Pt+2] [Carboplatin, reference compound] |  |  |  |  | 45 |  | 109 |  |  |  |  |  | 105 |  |  | 16.8 | 16.8 |  |  |  |  |
| O=C1[O][Pt]2([NH][C@@H]3CCCC[C@H]3[NH]2)[O]C1=O [Oxaliplatin, reference compound] | 3.2 |  | 0.18 |  |  |  | 15.5 |  |  |  |  |  |  |  | 1.6 | 12.7 |  |  |  |  |  |
| N.N.[Cl][Pt][Cl] [Cisplatin, cis-Diamminedichloroplatinum (II)] | 5.2 |  | 2.3 |  | 3.2 |  | 19.2 |  | 25 µM |  |  | 2.4 | 16.3 |  | 4.2 | 1.3 | 1.3 | 84 | 63 |  | PARP cleavage in A2780cisR ([11]; 30 h, concentrations below 100 microM): very minimal cleavage of PARP |

Further lines, with some results ahead:

| IC50 [1] [µM] | clonigenicity IC50s values lower than Cisplatin [6] | IC50 [6] [µM] | Compound | enhanced anti-CML activity compared to Cisplatin, K562 [1] [folds] | IC50 [2] [µM] | selectivity: potency against A2780 compared to HEK293T [2] | IC50 [3] [µM] | increased anti-proliferative potency compared to Cisplatin, A2780cisR [3] | concentration causing significant PARP cleavage, A2780 [4] | increase in levels of cleaved PARP compared to untreated sample ([5]; 1 microM) [fold] | increase in levels of cleaved PARP compared to untreated sample ([5]; 5 microM) [fold] | increase in levels of cleaved PARP compared to untreated sample ([5]; 25 microM) [fold] | IC50 [7] [µM] | selectivity: potency against A2780 compared to HEK293A [7] | IC50 [8] [µM] | IC50 [9, 12] [µM] | IC50 ([9]; Table 2, read-out: IC50 A2780) [µM] | IC50 [10] [µM] | ratio of IC50s against none cancerous cells (HFF) to the cancerous cell line (A2780) [10] | concentration causing significant PARP cleavage, A2780cisR [11] | further results |
| --- | --- | --- | --- | --- | --- | --- | --- | --- | --- | --- | --- | --- | --- | --- | --- | --- | --- | --- | --- | --- | --- |
| 1.3 | 20–30 folds | 0.015 | CCCCCCCCCCCC(=O)[O][Pt]([NH2])([NH2])([Cl])([Cl])[O]C(=O)CCCCCCCCCCC [RJY6, Cis, cis, trans-[diamminedichloro-bis-lauratoplatinum(IV)]] | 4 | 11.8 | 16 fold | 3.3 | 5-6 fold | above 25 microM | 2 | 3 | 21 | 17.3 | 24 fold | 0.013 | 0.7 | 0.7 | 82 | 117 and 117.2 | above 25 microM |  |
| 9.4 |  | 0.07 | CCCCCCCC/C=C\CCCCCCCC(=O)[O][Pt]([NH2])([NH2])([Cl])([Cl])[O]C(=O)CCCCCCC/C=C\CCCCCCCC [RJY3] |  |  |  | 15 |  |  |  |  |  |  |  |  | > 20 |  |  |  |  |  |
| 0.7 | 20–30 folds | 0.01 | CCCCCCCC(=O)[O][Pt]([NH2])([NH2])([Cl])([Cl])[O]C(=O)CCCCCCC [RJY13, Cis, cis, trans-[diamminedichloro-bis-octanoatoplatinum (IV)]] | 7 | 0.5 | about 10 fold | 0.57 | 33 fold | 5 µM | 4 | 34 | 37 | 0.7 | about 10 fold | 0.01 | 0.08 | 0.08 | 2.4 | 30 | 5 µM | increased anti-proliferative potency compared to Cisplatin, A2780 ([9]; ratio of IC50s vs Cisplatin): 16 fold |

— article PMC4763415, “Platinum (IV)-fatty acid conjugates overcome inherently and acquired Cisplatin resistant cancer cell lines: an in-vitro study” (BMC Cancer, 2016)
